From ChEMBL document CHEMBL3108777, “Isochromans and α-pyrones from Penicillium corylophilum” (J Nat Prod, 2014)
Values after ≈ are worked out from the molar mass of the structure shown. Active and inactive are the calls of the source. The calls are words filed in the database; no cut-off is given here.

Experiments:
Saccharomyces cerevisiae = assay: Antifungal activity against Saccharomyces cerevisiae assessed as growth inhibition measured every 4 hrs; assay type: functional
Pseudomonas putida = assay: Antibacterial activity against Pseudomonas putida ATCC 12633 at <50 ug/ml measured every 1 hr; assay type: functional, organism-based
Bacillus subtilis = assay: Antibacterial activity against Bacillus subtilis ATCC 23857 at <50 ug/ml measured every 1 hr; assay type: functional, organism-based
[1] = target: DNA topoisomerase 2-alpha (Homo sapiens, UniProt P11388); assay: Inhibition of topoisomerase-2 (unknown origin)
[2] = Inhibition of DNA gyrase (unknown origin)-mediated DNA relaxation
[3] = Inhibition of DNA gyrase (unknown origin)-mediated DNA supercoiling

DNA topoisomerase 2-alpha, sequence (P11388 whole entry): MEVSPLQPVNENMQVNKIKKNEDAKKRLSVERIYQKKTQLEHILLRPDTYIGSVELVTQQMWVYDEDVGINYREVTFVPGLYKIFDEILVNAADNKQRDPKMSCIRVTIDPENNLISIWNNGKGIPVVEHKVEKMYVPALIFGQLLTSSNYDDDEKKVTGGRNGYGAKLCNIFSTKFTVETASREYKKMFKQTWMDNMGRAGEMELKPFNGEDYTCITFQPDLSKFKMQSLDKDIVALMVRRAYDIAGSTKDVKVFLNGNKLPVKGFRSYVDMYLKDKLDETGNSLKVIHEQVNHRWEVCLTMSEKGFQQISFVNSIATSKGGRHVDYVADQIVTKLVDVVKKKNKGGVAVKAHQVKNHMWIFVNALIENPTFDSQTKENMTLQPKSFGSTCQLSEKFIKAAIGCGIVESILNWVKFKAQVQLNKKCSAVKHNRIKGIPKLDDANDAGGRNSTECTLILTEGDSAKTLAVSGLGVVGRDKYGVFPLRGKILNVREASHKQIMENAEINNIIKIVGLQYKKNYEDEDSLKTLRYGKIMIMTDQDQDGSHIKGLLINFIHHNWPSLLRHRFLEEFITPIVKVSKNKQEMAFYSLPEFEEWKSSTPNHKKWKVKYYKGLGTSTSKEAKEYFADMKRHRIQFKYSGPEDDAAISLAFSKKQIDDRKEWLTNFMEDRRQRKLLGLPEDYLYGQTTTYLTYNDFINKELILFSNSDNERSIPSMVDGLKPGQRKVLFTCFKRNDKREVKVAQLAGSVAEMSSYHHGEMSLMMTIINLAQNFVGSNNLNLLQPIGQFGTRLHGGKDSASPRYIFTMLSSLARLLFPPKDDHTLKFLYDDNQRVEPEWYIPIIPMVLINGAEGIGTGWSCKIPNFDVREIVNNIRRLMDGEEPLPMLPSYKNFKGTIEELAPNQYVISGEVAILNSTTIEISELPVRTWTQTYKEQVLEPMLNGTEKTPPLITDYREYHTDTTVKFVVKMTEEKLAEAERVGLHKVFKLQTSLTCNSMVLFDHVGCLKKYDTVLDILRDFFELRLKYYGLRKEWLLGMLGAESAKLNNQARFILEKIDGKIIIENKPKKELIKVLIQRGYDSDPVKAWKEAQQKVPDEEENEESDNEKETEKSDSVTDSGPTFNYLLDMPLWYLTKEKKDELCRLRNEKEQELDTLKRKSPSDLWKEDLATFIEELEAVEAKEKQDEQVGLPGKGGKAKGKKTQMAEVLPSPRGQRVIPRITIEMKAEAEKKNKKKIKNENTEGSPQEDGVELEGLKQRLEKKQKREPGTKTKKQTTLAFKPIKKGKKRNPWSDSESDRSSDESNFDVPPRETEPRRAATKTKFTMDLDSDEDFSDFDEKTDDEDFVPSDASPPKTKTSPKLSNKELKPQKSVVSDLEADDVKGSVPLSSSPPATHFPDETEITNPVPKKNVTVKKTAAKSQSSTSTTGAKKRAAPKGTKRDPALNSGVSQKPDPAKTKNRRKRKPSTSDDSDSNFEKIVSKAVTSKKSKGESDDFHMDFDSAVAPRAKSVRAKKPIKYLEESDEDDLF

Compound | MIC (Saccharomyces cerevisiae) | Activity (Pseudomonas putida) | Activity (Bacillus subtilis) | IC50 [1] | IC50 [2] | IC50 [3]
C[C@@H](O)CCCCC[C@H]1Cc2cc(O)c(C(=O)O)c(O)c2CO1 | 100 µg/mL (≈ 308 µM) | inactive | inactive |  |  | 
CCCCCCC[C@@H](O)C[C@H](O)Cc1cc(O)c(C)c(=O)o1 |  | inactive | inactive |  |  | 
C[C@@H](O)CCCCC[C@H]1Cc2cc(O)c(C(=O)O)c(O)c2[C@@H](O)O1 | 100 µg/mL (≈ 294 µM) | inactive | inactive |  |  | 
O=C(O)c1c(O)cc2c(c1O)CO[C@@H](CCCCCCCO)C2 | 100 µg/mL (≈ 308 µM) | inactive | inactive |  |  | 
NYSTATIN | < 5 µg/mL |  |  |  |  | 
O=C(O)c1c(O)cc2c(c1O)[C@@H](O)O[C@@H](CCCCCCCO)C2 | 100 µg/mL (≈ 294 µM) | inactive | inactive |  |  | 
CCCCCCC[C@H]1Cc2cc(O)c(C(=O)O)c(O)c2[C@@H](O)O1 |  |  |  | 3.08 µM | 9 µg/mL (≈ 27.7 µM) | 6 µg/mL (≈ 18.5 µM)
Cc1c(O)cc(C[C@@H](O)C[C@H](O)CCCCCCCO)oc1=O |  | inactive | inactive |  |  | 
Cc1c(O)cc(C[C@@H](O)CCCCCCCO)oc1=O |  | inactive | inactive |  |  | 
